This is an account of results in patent US10399924B2, “Deuterium substituted fumarate derivatives” (Biogen MA Inc., priority 2012, dated 2019).

One data set relates to Nrf2-Keap1 Pathway. Kind of data set: DiscoverRx PathHunter Nrf2-Keap1 nuclear translocation biosensor assay. The conditions noted are these: agonist mode, 6 hours incubation at room temperature; read-out: Nrf2 activation EC50. The data set is classed as cell-based. The text has this:
The PathHunter® Nuclear Translocation assay detects translocation of a target protein to, or from, the nucleus. In this system, Prolink™ (PK), a small enzyme fragment, is fused to the protein of interest and Enzyme Acceptor (EA) is localized in the nucleus. Activation of the signaling pathway induces the target protein to either transit into the nucleus, thus forcing complementation of the PK and EA fragments, or out of the nucleus, hindering complementation of the fragments. PathHunter Pathway cell lines were expanded from freezer stocks according to standard procedures. 5000 cells were seeded in Cell Plating Reagent 0 (containing 1% FBS) to a total volume of 20 μL into white walled, 384-well microplates and incubated for the overnight prior to testing. For Agonist determination, cells were incubated with sample to induce response. Dilution of sample stocks was performed to generate 100× sample in DMSO. […] Vehicle concentration was 1%. Assay signal was generated through a single addition of 25 μL (100% v/v) of PathHunter Flash Detection reagent, followed by a one hour incubation at room temperature. Microplates were read following signal generation with a PerkinElmer Envision™ instrument for chemiluminescent signal detection. Compound activity was analyzed using CBIS data analysis suite (ChemInnovation, CA). For agonist mode assays, percentage activity was calculated using the following formula: % Activity=100%×(mean RLU of test sample−mean RLU of vehicle control)/(mean MAX RLU control ligand−mean RLU of vehicle control).

Data set [1] is described as follows: Oral cassette co-administration PK with DMF in male SD rats (plasma, LC/MS/MS). The conditions noted are these: equivalent oral dose of 50 mg/kg of DMF, same study.
The nature of data set [2]: Oral PK at 100 mg/kg in male SD rats. The conditions noted are these: in vivo, rat, read-out: half-life of MMF (converted). The procedure: The concentration of the compounds was determined by LC/MS/MS. […] The concentration of D-MMF was determined by LC/MS/MS. […] The concentration of D-MMF was determined by LC/MS/MS.
For data set [3], the system named is Nrf2 (ARE-luciferase reporter), DLD-1/ARE-E2. Briefly: ARE-luciferase reporter assay of Nrf2 activation, DLD-1/ARE-E2 cells. The note with it: summary for DLD-1 and MCF-7 reporter cell lines. Type of data set: cell-based, human. The procedure: Human cancer cell line DLD-1 and breast cancer cell line MCF7 reporter stable cell lines were generated by transfection with a firefly luciferase reporter construct harboring the luciferase cDNA cloned downstream of eight catenated copies of the antioxidant response element ([…] ID NO.:1). See Wang et al. Cancer Res. 2006; 66:10983-94. To measure Nrf2 activation in the ARE-luciferase reporter cell lines, the cells were plated in 96-well plates at 20-50 k cells/well 24 hours prior to stimulation with the test compounds. […] The reporter cells were harvested 24 hours-48 hours after addition of the compounds and lysed for detection of luciferase activity. Luciferase activity in the lysates was monitored using the Bright-Glo Luciferase Assay System of Promega and Tecan Genios Pro plate reader. Luciferase induction in the compound-treated cells was calculated as fold change over the baseline activity detected in control cultures treated with DMSO-containing media.
(In general: Reporter assays use an easily measured gene product as a stand-in for the process of interest.)

Structures are written as SMILES. pEC50: −log10 of the molar value. Counter-ions that a name gives are not always drawn. Like-named read-outs stand apart in the source and are kept apart here.

A word on the pEC50: it is −log10 of the EC50, conventionally taken in molar units. Turning to `COC(=O)/C=C/C(=O)OC` [DMF, dimethyl fumarate, reference compound], in the data set on Nrf2-Keap1 Pathway, the pEC50 was 5.27.

As to `[2H]/C(C(=O)OC)=C(/[2H])C(=O)OC` [Example 4], the pEC50 in the data set with Nrf2-Keap1 Pathway was 5.32. Besides, in data set [1], the “oral exposure compared to DMF” value was “higher oral exposure”.

The term half-life denotes how long it takes for the measured level to halve. For `COC(=O)/C=C/C(=O)O` [MMF, monomethyl fumarate], the half-life in data set [2] (male, SD, 100 mg/Kg oral dose) was 54 min; in data set [2] (oral, 100 mg/Kg, species not stated for this figure) it was roughly 60 min.

Regarding `[2H]/C(C(=O)O)=C(/[2H])C(=O)O.[2H]/C(C(=O)OC([2H])([2H])[2H])=C(/[2H])C(=O)OC([2H])([2H])[2H]` [Example 8], the pEC50 in the data set with Nrf2-Keap1 Pathway is 5.10. Moreover, the “oral exposure compared to DMF” value in data set [1] was “higher oral exposure”.

In the case of `O=C(O)/C=C/C(=O)O.[2H]C([2H])([2H])OC(=O)/C=C/C(=O)O` [Example 2, (^2H3)methyl Fumaric Acid Ester], in data set [3], the “activation of ARE-dependent signaling of the luciferase reporter construct” value is on record as “able to activate ARE-dependent signaling”.

Regarding `O=C(O)/C=C/C(=O)O.[2H]C([2H])([2H])OC(=O)/C=C/C(=O)OC([2H])([2H])[2H]` [Example 1, (^2H6)dimethyl Fumaric Acid Ester], the “activation of ARE-dependent signaling of the luciferase reporter construct” value in data set [3] is “able to activate ARE-dependent signaling”. Also, in the data set with Nrf2-Keap1 Pathway, the negative-log EC50 (pEC50) is 5.18. The “oral exposure compared to DMF” value in data set [1] was “higher oral exposure”.
